Data set [1] has as its system MC38 mouse syngeneic colorectal adenocarcinoma. Nature of the data set: MC38 syngeneic tumor model. It is filed as in vivo, C57BL/6 mouse. As to the method:
Figure 3 Robust cytokine induction and antitumor effects in vivo. (a,b) C57BL/6 mice were inoculated with mouse MC38 colon cancer cells in the left flank. When tumor volumes were 100 mm^3, they received intratumoral (IT) dose of 100 µg of SHR1032 on day 1, 5, 8 and 12 or IT dose of 50 µg ADU-S100 on day 1, 5, and 8, or vehicle, respectively. (a) Tumor volume was measured at different time points. Results are shown as mean tumor volume ± sem. (n = 8 animals per group). (b) Mouse bodyweight was measured at different time points. (c–f) C57BL/6 mice were inoculated with mouse MC38 colon cancer cells in the left flank. When tumor volumes were 100 mm^3, they received one IT dose of 100 µg of SHR1032 or 50 µg ADU-S100, or vehicle. (c) IFNβ, (d) IL-6 and (e) TNFα from both tumor and plasma was measured by ELISA 4 h after. (f) SHR1032 compound concentration in tumors were measured.
(§1) Human and Cynomolgous PBMC’s were thawed and spun down in Lymphocyte media (ZENBIO) and resuspended in media to 1.5 x 10^6 cells/ml density. Mouse RAW 264.7 cells were detached from the flask and resuspended in media to 1.5 x 10^6 cells/ml density. Then, 100 µl of media containing the cells was added to each well of a 96-well plate containing compound in 50 µl of media. Plates were incubated for 5 h at 37 °C and supernatant was collected for ELISA analysis. Human and monkey IFN-β protein concentration was measured using human IFN-β Quantikine ELISA Kits (R&D Systems) per manufacture’s protocol. Mouse IFN-β was measured using mouse IFN-β Quantikine ELISA Kits (R&D Systems) per manufacture’s protocol. Mouse TNFα, IFN-β and IL-6 in the tumor lysates and plasma was measured by Quantikine ELISA Kits (R&D Systems) per manufacture’s protocol.
Female C57BL/6 mice, aged between 8 and 10 weeks old, were purchased from Charles River Lab. MC38 mouse colorectal cancer cells were resuspended as single cell solution in PBS at a concentration of 5 × 10^6 cells/ml. One hundred µl of cell suspension were implanted in the right flank of mice subcutaneously. Tumor size was measured by a caliper in three dimensions and its volume was then calculated according to the following formula: Tumor Volume (mm^3) = l * w * h * 0.5236, where l = length, w = width and h = height in mm for a tumor. When the average tumor volume reached around 100 mm^3, the mice were randomly assigned into three groups (n = 8) and each group of mice received one regimen. This day was assigned as day 0 for the study. […] Tumor volume and body weight were measured 3 times per week throughout the study. […] Cytokines and SHR1032 concentration in the plasma and tumor tissues were analyzed. […]

The test system of data set [2] is MOLM-16 cells. Nature of the data set: IFNβ ELISA. It is filed as cell-based, human. As to conditions: MOLM-16, 5 hrs, compared to THP1 cells. As to the method: as §1
(§2) Figure S2. IFNβ measurement in MV4-11, MOLM-16 and THP1-STING-R232 cells treated with SHR1032 for 5 hrs.
For orientation: In an ELISA, binding on a coated surface is turned into a signal by an enzyme label.

The test system of data set [3] is MV4-11 cells. In words: IFNβ ELISA. It is filed as cell-based, human. As to conditions: MV4-11, 5 hrs, compared to THP1 cells. As to the method: as §1, §2
For data set [4], the system named is MOLM-16 cells. In words: Western blot of TBK1 and STING phosphorylation. As to conditions: MOLM-16, 1 µM. It is filed as cell-based, human. As to the method: (§3) (a–d) AML cells were treated with STING agonists and standard of care cytarabine, and cell viability was measured by CellTiter Glo in (a) THP1-STING-R232, (b) THP1-STING-KO, (c) MV-4-11 and (d) MOLM-16. (e) MV-4-11, MOLM-16 and THP1-STING-KO cells were stimulated with 1 µM of SHR1032 for the indicated time points. The amount of pTBK1, total TBK1, pSTING, total STING and α-tubulin was measured by Western blot. pSTING phosphorylated STING. THP1 reporter cells were treated for 24 h with a total of 100 k cells and 150 ul media in each well a 96-well plate. Following the incubation, 20 µl of supernatant was transferred to an opaque 96 well ½ area plate and incubated for 30 s with 50 µl of QUANTI-Luc substrate (InvivoGen) per manufacturer’s instructions. Luminescence signal was measured using Tecan infinite M1000. EC50 values were calculated using non-linear regression analysis of GraphPad Prism. Cell growth was monitored by CellTiter-Glo Luminescent Cell Viability Assay (Promega) per manufacture’s protocol. GI50 values were calculated using non-linear regression analysis of GraphPad Prism. Cell lysates for western blotting were made in RIPA buffer (Sigma) with Halt Protease and Phosphatase Inhibitors (Thermo Scientific). Antibodies against pSTING, TBK1, pTBK1 and tubulin were purchased from Cell Signaling Technologies, and anti-STING was purchased from Protein Tech.
(In western blotting, separated proteins are transferred to a membrane and probed.)

In data set [5] the test system is MV4-11 cells. Nature of the data set: Western blot of TBK1 and STING phosphorylation. The format is cell-based, human. As to conditions: MV4-11, 1 µM. The protocol:
as §3

The test system of the next data set is THP1-STING-KO cells. Nature of the data set: Western blot of TBK1 and STING phosphorylation. It is filed as cell-based, human. As to conditions: 1 µM. As to the method:
as §3

Consider `CCn1nc(C)cc1C(=O)Nc1nc2cc(C(N)=O)cc(OC)c2n1CCC[C@H]1COc2cc(C(N)=O)cc3nc(NC(=O)c4cc(C)nn4CC)n1c23` [SHR1032], for which the tumor growth inhibition in data set [1] (100 µg intratumorally on day 1, 5, 8 and 12, compared to the control group) was 78%. Further, the mouse pharmacokinetic properties result in data set [1] (intratumoral, mouse) is reported as “favorable mouse pharmacokinetic properties”. Also, the “IFNβ, IL-6 and TNFα induction in tumor and plasma” value in data set [1] (one IT dose of 100 µg, 4 h post dosing, ELISA) was “induced all the three cytokines in both tumors and plasma”. In addition, the IFNβ production result in the data set with MOLM-16 cells [2] was “produced IFNβ, but with a level much lower than that in THP1 cells”; with MV4-11 cells [3], “produced IFNβ, but with a level much lower than that in THP1 cells”. Also, the “TBK1 and STING phosphorylation” value is “induced TBK1 and STING phosphorylation” in the data set with MOLM-16 cells [4]; “induced TBK1 and STING phosphorylation” with MV4-11 cells [5]; “not in THP1-STING-KO cells” in the data set on THP1-STING-KO cells.

The record behind these values is article PMC9122897, “SHR1032, a novel STING agonist, stimulates anti-tumor immunity and directly induces AML apoptosis” (Scientific Reports, 2022).
